# Laboratory results: US12319655B2, “RAF kinase inhibitors and methods of use thereof” (Deciphera Pharmaceuticals, LLC, priority 2021, dated 2025)
# Experiments:
# [1] = target: A-Raf kinase (SEQ. ID No: 1) (Homo sapiens (Human), UniProt P10398, Y301D/Y302D); assay: Biochemical Assay for A-Raf (2); conditions: Table J, biochemical assay (2); read-out: ARAF (2)
# Procedure: Biochemical Assay for A-Raf (2)
# (§1) Activity of A-Raf kinase (SEQ. ID No: 1) was determined spectroscopically using a coupled pyruvate kinase/lactate dehydrogenase assay that continuously monitors the ATP hydrolysis-dependent oxidation of NADH (e.g., Schindler et al., Science, 2000, 289, 1938-1942). Assays were conducted in 384-well plates (25 μL final volume) using 20 nM A-Raf (Eurofins), 1.5 units pyruvate kinase, 2.1 units lactate dehydrogenase, 1 mM phosphoenol pyruvate, 0.7 mM NADH, 100 nM MEK (SignalChem), and 1 mM ATP in assay buffer (100 mM Tris, pH 7.5, 15 mM MgCl2, 0.5 mM DTT, 0.1% octyl-glucoside, 0.002% (w/v) BSA, and 0.002% Triton X-100). Inhibition of A-Raf was measured by adding serial diluted test compound (final assay concentration of 1% DMSO). A decrease in absorption at 340 nm was monitored hourly for 4 h at 30° C. on a multi-mode microplate reader (BioTek). The reaction rate was calculated using the 3 to 4 h time frame. The reaction rate at each concentration of compound was converted to percent inhibition using controls (i.e., reaction with no test compound and reaction with a known inhibitor) and IC50 values were calculated by fitting a four-parameter sigmoidal curve to the data using Prism (GraphPad software).
# [2] = target: C-Raf kinase (SEQ. ID NO: 3) (Homo sapiens (Human), UniProt P04049, Y340D/Y341D); assay: Biochemical Assay for C-Raf (2); conditions: Table J, biochemical assay (2); read-out: CRAF (2)
# Sequence of C-Raf kinase (SEQ. ID NO: 3) (P04049 307-648 Y340D/Y341D): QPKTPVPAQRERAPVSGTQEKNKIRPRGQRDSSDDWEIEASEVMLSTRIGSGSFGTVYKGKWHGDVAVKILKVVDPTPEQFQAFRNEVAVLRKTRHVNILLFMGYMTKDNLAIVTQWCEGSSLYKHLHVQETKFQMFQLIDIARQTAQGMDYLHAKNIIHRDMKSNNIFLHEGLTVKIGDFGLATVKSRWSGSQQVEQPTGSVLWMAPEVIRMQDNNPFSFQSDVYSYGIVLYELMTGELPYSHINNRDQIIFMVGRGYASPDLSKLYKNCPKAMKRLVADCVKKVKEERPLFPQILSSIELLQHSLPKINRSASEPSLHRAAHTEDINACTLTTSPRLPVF
# Procedure: Biochemical Assay for C-Raf (2)
# Activity of C-Raf kinase (SEQ. ID NO: 3) was determined spectroscopically using a coupled pyruvate kinase/lactate dehydrogenase assay that continuously monitors the ATP hydrolysis-dependent oxidation of NADH (e.g., Schindler et al., Science, 2000, 289, 1938-1942). Assays were conducted in 384-well plates (25 μL final volume) using 3.84 nM C-Raf (Eurofins), 1.5 units pyruvate kinase, 2.1 units lactate dehydrogenase, 1 mM phosphoenol pyruvate, 0.7 mM NADH, 50 nM MEK (SignalChem), and 1 mM ATP in assay buffer (100 mM Tris, pH 7.5, 15 mM MgCl2, 0.5 mM DTT, 0.1% octyl-glucoside, 0.002% (w/v) BSA, and 0.002% Triton X-100). Inhibition of C-Raf was measured by adding serial diluted test compound (final assay concentration of 1% DMSO). A decrease in absorption at 340 nm was monitored hourly for 4 h at 30° C. on a multi-mode microplate reader (BioTek). The reaction rate was calculated using the 2 to 3 h time frame. The reaction rate at each concentration of compound was converted to percent inhibition using controls (i.e., reaction with no test compound and reaction with a known inhibitor) and IC50 values were calculated by fitting a four-parameter sigmoidal curve to the data using Prism (GraphPad software).
# [3] = target: B-Raf (V600E) (SEQ. ID NO: 4) kinase (Homo sapiens (Human), UniProt P15056, V600E); assay: Biochemical Assay for B-Raf (V600E) (2); conditions: Table J, BRAF V600E, biochemical assay (2); read-out: BRAF VE (2)
# Sequence of B-Raf (V600E) (SEQ. ID NO: 4) kinase (P15056 416-766 V600E): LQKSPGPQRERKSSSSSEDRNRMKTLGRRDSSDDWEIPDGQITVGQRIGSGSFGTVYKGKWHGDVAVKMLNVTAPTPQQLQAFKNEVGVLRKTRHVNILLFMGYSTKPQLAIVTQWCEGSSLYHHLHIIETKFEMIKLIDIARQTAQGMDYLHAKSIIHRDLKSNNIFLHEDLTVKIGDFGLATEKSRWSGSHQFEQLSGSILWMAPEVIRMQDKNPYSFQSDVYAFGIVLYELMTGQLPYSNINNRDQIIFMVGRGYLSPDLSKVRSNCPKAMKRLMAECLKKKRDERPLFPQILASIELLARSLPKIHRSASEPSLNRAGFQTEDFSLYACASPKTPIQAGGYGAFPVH
# Procedure: Biochemical Assay for B-Raf (V600E) (2)
# as §1, with “of B-Raf (V600E)” for “of A-Raf kinase”, “ID NO: 4) kinase” for “ID No: 1)”, “using 0.5” for “using 20”, “nM B-Raf (deCode),” for “nM A-Raf (Eurofins),”, “of B-Raf (V600E)” for “of A-Raf”
# [4] = tested on: H2405 cells; assay: H2405 Cell Proliferation Assay (2); assay type: cell-based; conditions: Homo sapiens, NCI-H2405
# Procedure: H2405 Cell Proliferation Assay (2)
# H2405 cells (catalog #CRL-5994) are obtained from the American Type Culture Collect (ATTC, Manassas, VA). Briefly, cells were grown in RPMI 1640 supplemented with 5% characterized fetal bovine serum (Invitrogen, Carlsbad, CA) and 1% Penicillin/Streptomycin/L-Glutamine at 37° C., 5% CO2, and 95% humidity. Cells are expanded until reaching 70-95% confluency at which point they are sub-cultured or harvested for assay use. A serial dilution of test compound is dispensed into a 384-well black clear bottom plate in triplicate. Seven hundred fifty cells are added per well in 50 μL complete growth medium in the 384-well plate. Plates are incubated for 67-72 h at 37° C., 5% CO2, and 95% humidity. At the end of the incubation, 10 μL of a 440 μM solution of resazurin (Sigma, St. Louis, MO) in PBS is added to each well of the plate and plates are incubated for an additional 5-6 h at 37° C., 5% CO2, and 95% humidity. Plates are read on a Synergy2 or equivalent reader (Biotek, Winooski VT) using an excitation of 540 nm and an emission of 600 nm. Data is analyzed using Prism software (GraphPad, San Diego, CA) to calculate IC50 values
# Sequence of A-Raf kinase (SEQ. ID No: 1) (P10398 other isoform, or with tags, fused parts or gaps Y301D (already in the parent)/Y302D (already in the parent)): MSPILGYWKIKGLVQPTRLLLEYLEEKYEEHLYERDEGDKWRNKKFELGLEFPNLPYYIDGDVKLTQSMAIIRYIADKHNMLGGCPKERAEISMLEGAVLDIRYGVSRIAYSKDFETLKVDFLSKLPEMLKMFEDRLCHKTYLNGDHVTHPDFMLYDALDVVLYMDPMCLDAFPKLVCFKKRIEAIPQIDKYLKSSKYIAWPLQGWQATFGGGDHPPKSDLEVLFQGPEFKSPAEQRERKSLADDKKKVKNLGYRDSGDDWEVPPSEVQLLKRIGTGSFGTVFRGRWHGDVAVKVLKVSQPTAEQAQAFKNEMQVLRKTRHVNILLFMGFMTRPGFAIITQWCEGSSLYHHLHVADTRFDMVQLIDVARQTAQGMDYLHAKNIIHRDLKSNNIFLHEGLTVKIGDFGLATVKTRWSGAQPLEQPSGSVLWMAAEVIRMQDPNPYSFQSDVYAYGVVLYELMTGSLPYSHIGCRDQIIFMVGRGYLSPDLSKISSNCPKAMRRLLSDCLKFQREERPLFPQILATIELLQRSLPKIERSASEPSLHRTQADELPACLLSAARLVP
Structure (SMILES),IC50 [1] [nM],IC50 [2] [nM],IC50 [3] [nM],IC50 [4] [nM]
CNC(=O)c1cc(-c2cc(-c3cc(NC(=O)c4ccnc(C(C)(C)F)c4)ccc3Cl)ccn2)ccn1 [Example 485],1000 to 10000,≤ 100,≤ 100,100 to 500
[2H]C([2H])([2H])NC(=O)c1cc(-c2cc(-c3cc(NC(=O)c4ccnc(C(C)(C)F)c4)ccc3C)ccn2)ccn1 [Example 489],100 to 500,≤ 100,≤ 100,≤ 100
CNC(=O)c1cc(-c2cc(-c3cc(NC(=O)c4ccnc(C(C)(C)F)n4)ccc3C)ccn2)ccn1 [Example 494],1000 to 10000,≤ 100,≤ 100,1000 to 10000
CNC(=O)c1cc(-c2cc(-c3cc(NC(=O)c4cnnc(C(C)(C)F)c4)ccc3C)ccn2)ccn1 [Example 495],500 to 1000,≤ 100,≤ 100,100 to 500
CNC(=O)c1cc(-c2cc(-c3cc(NC(=O)c4ccnc(C(C)(C)F)c4)c(F)cc3C)ccn2)ccn1 [Example 497],1000 to 10000,100 to 500,≤ 100,100 to 500
[2H]C([2H])([2H])NC(=O)c1cc(-c2cc(-c3cc(NC(=O)c4ccnc(C5(F)CC5)c4)ccc3C)cc(C)n2)ccn1 [Example 498],1000 to 10000,100 to 500,≤ 100,100 to 500
Cc1ccc(NC(=O)c2ccc(C(F)(F)F)cc2)cc1-c1ccnc(-c2ccnc(NC(=O)C3CC3)c2)c1 [Example 501],1000 to 10000,≤ 100,100 to 500,100 to 500
Cc1ccc(NC(=O)c2cc(C(F)(F)F)ccc2F)cc1-c1ccnc(-c2ccnc(NC(=O)C3CC3)c2)c1 [Example 503],100 to 500,≤ 100,≤ 100,100 to 500

# More lines, now with the values ahead:
IC50 [1] [nM],IC50 [2] [nM],IC50 [3] [nM],IC50 [4] [nM],Structure (SMILES)
1000 to 10000,≤ 100,≤ 100,500 to 1000,Cc1ccc(NC(=O)c2ccnc(C(C)(C)F)c2)cc1-c1cnnc(-c2ccnc(C(N)=O)c2)c1 [Example 486]
100 to 500,≤ 100,≤ 100,≤ 100,CNC(=O)c1cc(-c2cc(-c3cc(NC(=O)c4ccnc(C5(F)CC5)c4)ccc3C)ccn2)ccn1 [Example 487]
500 to 1000,≤ 100,≤ 100,100 to 500,Cc1ccc(NC(=O)c2ccnc(C(C)(C)F)c2)cc1-c1cc(-c2ccnc(C(N)=O)c2)ncn1 [Example 488]
1000 to 10000,≤ 100,≤ 100,100 to 500,Cc1ccc(NC(=O)c2ccnc(C(C)(C)F)c2)cc1-c1cc(-c2ccnc(C(N)=O)c2)ncc1F [Example 490]
1000 to 10000,≤ 100,≤ 100,100 to 500,CC(C)(F)c1cc(C(=O)Nc2ccc(F)c(-c3ccnc(-c4ccnc(C(N)=O)c4)c3)c2)ccn1 [Example 491]
1000 to 10000,≤ 100,≤ 100,100 to 500,CNC(=O)c1cc(-c2cc(-c3cc(NC(=O)c4cnnc(C(C)(F)F)c4)ccc3C)ccn2)ccn1 [Example 492]
1000 to 10000,≤ 100,≤ 100,100 to 500,[2H]C([2H])([2H])NC(=O)c1cc(-c2cc(-c3cc(NC(=O)c4ccnc(C(C)(C)F)c4)ccc3C)cc(C)n2)ccn1 [Example 493]
1000 to 10000,≤ 100,≤ 100,100 to 500,CNC(=O)c1cc(-c2cc(-c3cc(NC(=O)c4ccnc(C5(F)CC5)c4)ccc3C)cc(C)n2)ccn1 [Example 496]
1000 to 10000,≤ 100,≤ 100,100 to 500,CNC(=O)c1cc(-c2cc(-c3cc(NC(=O)c4ccnc(C(C)(C)F)c4)ncc3C)ccn2)ccn1 [Example 499]
1000 to 10000,≤ 100,≤ 100,1000 to 10000,Cc1ccc(NC(=O)c2cn(C)nc2C(F)(F)F)cc1-c1cncc(-c2ccnc(NC(=O)C3CC3)c2)c1 [Example 500]
100 to 500,≤ 100,≤ 100,≤ 100,Cc1ccc(NC(=O)c2cccc(C(F)(F)F)c2)cc1-c1ccnc(-c2ccnc(NC(=O)C3CC3)c2)c1 [Example 502]
